Like-named read-outs stand apart in the source and are kept apart here.
Experiments:
[1] = molecular target: T1, PDK1 kinase (Homo sapiens, UniProt O15530); assay: PDK1 Kinase Alpha Screen Assay; format: biochemical; conditions: read-out: PDK1 IC50
T1 sequence (O15530 1-556): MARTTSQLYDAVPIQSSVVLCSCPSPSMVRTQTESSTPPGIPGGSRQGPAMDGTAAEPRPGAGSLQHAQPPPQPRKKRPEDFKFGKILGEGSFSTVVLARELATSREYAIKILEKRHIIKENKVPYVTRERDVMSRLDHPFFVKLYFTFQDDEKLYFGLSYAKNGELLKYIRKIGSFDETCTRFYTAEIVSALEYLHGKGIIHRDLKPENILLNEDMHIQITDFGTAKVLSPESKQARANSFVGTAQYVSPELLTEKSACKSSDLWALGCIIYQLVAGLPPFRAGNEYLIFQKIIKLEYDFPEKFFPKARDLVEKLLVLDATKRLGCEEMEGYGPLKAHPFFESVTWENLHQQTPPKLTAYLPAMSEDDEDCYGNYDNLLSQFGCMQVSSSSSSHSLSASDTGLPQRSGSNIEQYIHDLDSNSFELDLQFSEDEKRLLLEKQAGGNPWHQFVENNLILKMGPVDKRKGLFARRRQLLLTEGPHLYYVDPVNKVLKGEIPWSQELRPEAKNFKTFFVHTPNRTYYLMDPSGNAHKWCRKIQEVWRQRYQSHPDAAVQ
Method in brief: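 Test compounds were incubated with PDK1 kinase, 10 uM ATP and 50 nM biotinylated peptide substrate for 3-18 hours at pH 7.5 with 2.5% DMSO. Peptide phosphorylation was then detected by AlphaScreen proximity luminescence using a phospho-(Ser/Thr) PKA substrate antibody.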

[2] = tested on: A2780 cells; assay: Cell Proliferation Assay (Cell Titer Glo), A2780; format: cell-based; conditions: Homo sapiens, read-out: CPEC50 A2780
Method in brief: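 Cells seeded at 1000/well, allowed to adhere 3-5 h, then exposed to DMSO-dissolved compounds for 3 days at 37° C., 5% CO2. Medium replaced before Cell Titer Glo addition; luminescence read after 10 min.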

[3] = 72 h, A2780 cells, 3 days incubation
[4] = Cell Proliferation Assay, A2780

| IC50 [1] [µM] | EC50 [2, 3] [µM] | IC50 ([1]; PDK1 Kinase Alpha Screen Assay) [µM] | EC50 [2, 4] [µM] | Structure (SMILES) |
| --- | --- | --- | --- | --- |
| – | – | < 5 | < 5 | CN(C)CCOc1cccc2cnc(Nc3ccc(C(N)=O)cc3)nc12 [Compound 504, 4-(8-(2-(dimethylamino)ethoxy)quinazolin-2-ylamino)benzamide] |
| – | – | < 5 | < 5 | NC(=O)c1ccc(Nc2ncc3cccc(OC4CCCC4)c3n2)cc1 [Compound 505, 4-(8-(cyclopentyloxy)quinazolin-2-ylamino)benzamide] |
| – | – | < 5 | < 5 | CC(C)Oc1cccc2cnc(Nc3ccc(C(N)=O)cc3)nc12 [Compound 506, 4-(8-isopropoxyquinazolin-2-ylamino)benzamide] |
| – | – | < 5 | 5 to 10 | NCCOc1cccc2cnc(Nc3ccccc3)nc12 [Compound 507, 8-(2-aminoethoxy)-N-phenylquinazolin-2-amine] |
| – | – | 5 to 10 | 5 to 10 | CC(C)(C(N)=O)C(=O)NCCOc1cccc2cnc(Nc3ccccc3)nc12 [Compound 508, 2,2-dimethyl-N1-(2-(2-(phenylamino)quinazolin-8-yloxy)ethyl)malonamide] |
| – | – | < 5 | < 5 | NS(=O)(=O)c1ccc(Nc2ncc3cccc(OCCN4CCOCC4)c3n2)cc1 [Compound 510, 4-(8-(2-mropholinoethoxy)quinazolin-2-ylamino)benzenesulfonamide] |
| – | – | < 5 | < 5 | NC(=O)c1cccc(COc2cccc3cnc(Nc4ccc(S(N)(=O)=O)cc4)nc23)c1 [Compound 513, 3-((2-(4-sulfamoylphenylamino)quinazolin-8-yloxy)methyl)benzamide] |
| – | – | < 5 | < 5 | CC(=O)Nc1ccc(COc2cccc3cnc(Nc4ccc(S(N)(=O)=O)cc4)nc23)cc1 [Compound 514, N-(4-((2-(4-sulfamoylphenylamino)quinazolin-8-yloxy)methyl)phenyl)acetamide] |
| – | – | < 5 | < 5 | CNC(=O)c1ccc(Nc2ncc3cccc(OC(C)C)c3n2)cc1 [Compound 515, 4-(8-isopropoxyquinazolin-2-ylamino)-N-methylbenzamide] |
| – | – | < 5 | < 5 | CC(C)NC(=O)c1ccc(Nc2ncc3cccc(OC(C)C)c3n2)cc1 [Compound 516, 4-(8-isopropoxyquinazolin-2-ylamino)-N-isopropylbenzamide] |
| – | – | < 5 | < 5 | CNS(=O)(=O)c1ccc(Nc2ncc3cccc(OC(C)C)c3n2)cc1 [Compound 517, 4-(8-isopropoxyquinazolin-2-ylamino)-N-methylbenzenesulfonamide] |
| – | – | 5 to 10 | 5 to 10 | NS(=O)(=O)c1ccc(Nc2ncc3cccc(OCC(=O)N4CCOCC4)c3n2)cc1 [Compound 518, 4-(8-(2-morpholino-2-oxoethoxy)quinazolin-2-ylamino)benzenesulfonamide] |
| – | – | < 5 | < 5 | CC(C)Oc1cccc2cnc(Nc3ccc(S(C)(=O)=O)cc3)nc12 [Compound 554, 8-isopropoxy-N-(4-(methylsulfonyl)phenyl)quinazolin-2-amine] |
| – | – | < 5 | < 5 | CC(C)Oc1cccc2cnc(Nc3cccc(S(C)(=O)=O)c3)nc12 [Compound 555, 8-isopropoxy-N-(3-(methylsulfonyl)phenyl)quinazolin-2-amine] |
| – | – | < 5 | < 5 | CC(C)Oc1cccc2cnc(Nc3cccc(S(N)(=O)=O)c3)nc12 [Compound 556, 3-(8-isopropoxyquinazolin-2-ylamino)benzenesulfonamide] |

The remaining lines, values behind:

| Structure (SMILES) | IC50 [1] [µM] | EC50 [2, 3] [µM] | IC50 ([1]; PDK1 Kinase Alpha Screen Assay) [µM] | EC50 [2, 4] [µM] |
| --- | --- | --- | --- | --- |
| CN(C)[C@@H]1CCN(C(=O)c2cccc3cnc(Nc4ccc(S(N)(=O)=O)cc4)nc23)C1 [Compound 141, 4-[8-((R)-3-Dimethylamino-pyrrolidine-1-carbonyl)-quinazolin-2-ylamino]-benzenesulfonamide] | < 5 | 5 to 10 | – | – |
| NS(=O)(=O)c1ccc(Nc2ncc3cccc(C(=O)NC4CCNCC4)c3n2)cc1 [Compound 142, 2-(4-Sulfamoyl-phenylamino)-quinazoline-8-carboxylic acid piperidin-4-ylamide] | < 5 | 5 to 10 | – | – |
| CN(C)[C@H]1CCN(C(=O)c2cccc3cnc(Nc4ccc(S(N)(=O)=O)cc4)nc23)C1 [Compound 143, 4-[8-((S)-3-Dimethylamino-pyrrolidine-1-carbonyl)-quinazolin-2-ylamino]-benzenesulfonamide] | < 5 | 5 to 10 | – | – |
| NS(=O)(=O)c1ccc(Nc2ncc3cccc(C(=O)N[C@H]4CN5CCC4CC5)c3n2)cc1 [Compound 144, 2-(4-Sulfamoyl-phenylamino)-quinazoline-8-carboxylic acid (R)-3-quinuclidinylamide] | 5 to 10 | 5 to 10 | – | – |
| CC(C)COc1cccc2cnc(Nc3ccc(S(N)(=O)=O)cc3)nc12 [Compound 310, 4-(8-isobutoxyquinazolin-2-ylamino)benzenesulfonamide] | – | – | < 5 | < 5 |
| CC(=O)Nc1ccc(Nc2ncc3cccc(OC(C)C)c3n2)cc1 [Compound 311, N-(4-(8-isopropoxyquinazolin-2-ylamino)phenyl)acetamide] | – | – | < 5 | 5 to 10 |
| CC(=O)NS(=O)(=O)c1ccc(Nc2ncc3cccc(OC(C)C)c3n2)cc1 [Compound 312, N-(4-(8-isopropoxyquinazolin-2-ylamino)phenylsulfonyl)acetamide] | – | – | < 5 | 5 to 10 |
| CC(C)Oc1cccc2cnc(Nc3ccc(NC(=O)CN(C)C)cc3)nc12 [Compound 313, 2-(dimethylamino)-N-(4-(8-isopropoxyquinazolin-2-ylamino)phenyl)acetamide] | – | – | 5 to 10 | < 5 |
| Nc1ccc2cnc(Nc3ccc(S(N)(=O)=O)cc3)nc2c1 [Compound 315, 4-(7-aminoquinazolin-2-ylamino]-benzenesulfonamide] | – | – | < 5 | < 5 |
| CC(=O)Nc1ccc2cnc(Nc3ccc(S(N)(=O)=O)cc3)nc2c1 [Compound 316, N-(2-(4-sulfamoylphenylamino)quinazolin-7-yl)acetamide] | – | – | < 5 | < 5 |
| NS(=O)(=O)c1ccc(Nc2ncc3cccc(OCc4ccc5nnsc5c4)c3n2)cc1 [Compound 386, 4-(8-(benzo[d][1,2,3]thiadiazol-6-ylmethoxy)quinazolin-2-ylamino)benzenesulfonamide] | – | – | < 5 | < 5 |
| NS(=O)(=O)c1ccc(Nc2ncc3cc(Br)cc(O)c3n2)cc1 [Compound 388, 4-(6-bromo-8-hydroxyquinazolin-2-ylamino)benzenesulfonamide] | – | – | < 5 | < 5 |
| NS(=O)(=O)c1ccc(Nc2ncc3cccc(OCCCn4c(=O)[nH]c5ccccc54)c3n2)cc1 [Compound 391, 4-(8-(3-(2-oxo-2,3-dihydro-1H-benzo[d]imidazol-1-yl)propoxy)quinazolin-2-ylamino)benzenesulfonamide] | – | – | < 5 | 5 to 10 |
| COCCN(C)Cc1cccc2cnc(Nc3ccc(S(N)(=O)=O)cc3)nc12 [Compound 392, 4-(8-(((2-methoxyethyl)(methyl)amino)methyl)quinazolin-2-ylamino)benzenesulfonamide] | – | – | < 5 | < 5 |
| COc1cccc(Oc2cccc3cnc(Nc4ccc(S(N)(=O)=O)cc4)nc23)c1 [Compound 406, 4-(8-(3-methoxyphenoxy)quinazolin-2-ylamino)benzenesulfonamide] | – | – | < 5 | < 5 |
| COc1ccc(Oc2cccc3cnc(Nc4ccc(S(N)(=O)=O)cc4)nc23)cc1 [Compound 407, 4-(8-(4-methoxyphenoxy)quinazolin-2-ylamino)benzenesulfonamide] | – | – | < 5 | < 5 |
| N#Cc1ccc(Oc2cccc3cnc(Nc4ccc(S(N)(=O)=O)cc4)nc23)cc1 [Compound 409, 4-(8-(4-cyanophenoxy)quinazolin-2-ylamino)benzenesulfonamide] | – | – | < 5 | 5 to 10 |
| COc1cccc(Oc2ccc3cnc(Nc4ccc(S(N)(=O)=O)cc4)nc3c2)c1 [Compound 415, 4-(7-(3-methoxyphenoxy)quinazolin-2-ylamino)benzenesulfonamide] | – | – | < 5 | < 5 |
| NS(=O)(=O)c1ccc(Nc2ncc3ccc(Br)c(O)c3n2)cc1 [Compound 421, 4-(7-bromo-8-hydroxyquinazolin-2-ylamino)benzenesulfonamide] | – | – | 5 to 10 | < 5 |
| CNS(=O)(=O)Cc1ccc(Nc2ncc3cccc(OC)c3n2)cc1 [Compound 498, 1-(4-(8-methoxyquinazolin-2-ylamino)phenyl)-N-methylmethanesulfonamide] | – | – | < 5 | 5 to 10 |
| CC(C)Oc1cccc2cnc(Nc3ccc(S(=O)(=O)N4CCN(C)CC4)cc3)nc12 [Compound 499, 8-isopropoxy-N-(4-(4-methylpiperazin-1-ylsulfonyl)phenyl)quinazolin-2-amine] | – | – | < 5 | 5 to 10 |

Source: US7932262B2 (Novartis AG, priority 2006, dated 2011)
